Test results from patent publication US20240124510A1, “Cyclic Glycoaminoacid Derivatives” (TFCHEM, priority 2021, published 2024).
Several values for one entry are separate records, joined by “and”; a condition that tells them apart may be missing. Equal entries are not always repeated.

Tests used:
[1] = tested on: Normal human epidermal keratinocytes (NHEK); assay: Lipid peroxidation in NHEK under UV stimulation (C11-fluor probe, flow cytometry); format: cell-based; conditions: 100 μM, irradiated UVB 300 mJ/cm^2 (+UVA 2.1 J/cm^2)
Description: Normal human epidermal keratinocytes were seeded in 48-well plates and cultured in culture medium for 24 hours and then in assay medium for a further 24 hours. The medium was then removed and replaced by assay medium containing or not (irradiated control) the test compounds or the reference (BHA—butylated hydroxyanisole, lipid peroxidation inhibitor—at 100 μM) and the cells were pre-incubated for 24 hours. After pre-incubation, the specific fluorescent probe for the measurement of lipid peroxides (C11-fluor) was added and the cells were incubated for 45 minutes. Then, the medium was removed and replaced by assay medium containing or not (irradiated control and test compound conditions) the reference and the cells were irradiated with UVB (+UVA)−300 mJ/cm^2 (+2.1 J/cm^2). The lamp used was a SOL500 Sun Simulator equipped with an H2 filter (Dr. Hbnle. AG). After irradiation, the medium was removed and replaced by assay medium containing or not (irradiated control) the test compounds or the reference and the cells were incubated for 30 minutes before flow cytometry analysis. A non-irradiated control condition was performed in parallel. All experimental conditions were performed in triplicate.
At the end of the incubation, in each well, the cells were trypsinized and transferred into specific tubes for the analysis of C11-fluor fluorescence intensity using a BD FACSVerse™ flow cytometer (acquisition of 2000 to 5000 events per tube). The C11-fluor fluorescent probe is a lipid analogue which integrates cell membranes. As the fluorescence intensity of this probe is decreased with oxidation, it is inversely proportional to the lipid peroxidation. In order to facilitate the result interpretation, the lipid peroxidation was expressed using the value “1/fluorescence intensity” in order to have a direct proportionality between the induction of lipid peroxidation and the values of “% of irradiated control”.
Results presented in Table 24 are expressed as fluorescence intensity and as […] of protection compared to the control.

IL-6 [2] = assay: Extracellular secretion of IL-6 by preadipocytes in inflammatory condition (ELISA); format: cell-based, human
Description: (§1) Preadipocytes have been isolated from human female hypodermis (body mass index <30 kg/m2 and <45 years old). Preadipocytes have been cultured for 24 h in 100 μl of DMEM-10% Fetal Bovine Serum (FBS) in 96-well plates. Then cells were treated to induce their differentiation in a classical or an inflammatory environment for 13 days.
(§2) To induce the preadipocytes differentiation cells were incubated in a proadipogenic cocktail (PAC) including insulin, glucocorticoid, 3-isobutyl-1-methylxanthine (IBMX), and thiazolinedione in DMEM.
(§3) To induce a fibro-inflammatory environment, cells were treated with an activated human macrophage-conditioned medium (AcMC) prepared in RPMI medium. A treatment with Dexamethasone (DXM) at 100 nM was used as anti-inflammatory response control. At D0: preadipocytes have been treated in the following conditions: • “Undifferentiation”: DMEM+¼ RPMI medium • “Differentiation”: PAC+¼ RPMI medium • “AcMC” i.e. inflammatory condition: PAC+¼ AcMC • “AcMC+DXM”: PAC+[…] AcMC+anti-inflammatory DXM at 100 nM • “AcMc+compounds”: PAC+14 AcMC+compounds to be tested
(§4) All conditions have been performed in triplicate. The medium has been changed every 2 days for 13 days.
(§5) At D14: during the last 24 h of culture, the medium has been replaced by DMEM/F12 medium in all conditions, to collect cells' secretions.
(§6) After 13 days, the 24 h culture media of the different conditions have been collected at the end of the treatment period. The concentrations of IL-6, procollagen I and MCP1 have been evaluated by ELISA assays using specific kits (for IL-6: DY206, DuoSet ELISA, R&D Systems; for Procollagen I: DY6220-05, DuoSet ELISA, R&D Systems; for MCP1: DY279-05 DuoSet ELISA, R&D Systems) according to the manufacture's recommendations. Values have been normalized to the cell number determined by DAPI staining.
Quantity of IL-6 secreted in medium was measured and was normalized by cell number in each culture condition. Data are represented in percentage of proinflammatory control condition (AcMC condition).

human preadipocytes = assay: Total lipid accumulation (AdipoRed staining) in preadipocytes/adipocytes in inflammatory condition; format: cell-based; conditions: AcMC + 100 nM, end of the culture
Description: as §1, §2, §3, §4
After 14 days of culture, preadipocytes have been fixed with 4% paraformaldehyde and then stained by AdipoRed™ at room temperature to reveal the intracellular lipid droplets. Quantification of lipid accumulation has been performed by fluorescence intensity measurements using the spectrophotometer Spark (TECAN).
Lipid accumulation and Lipid index were evaluated for each condition. Data are represented in percentage of proinflammatory control condition (AcMC condition).

MCP1 = assay: Extracellular secretion of MCP1 by preadipocytes in inflammatory condition (ELISA); format: cell-based, human
Description: as §1, §2, §3, §4, §5, §6
Quantity of MCP1 secreted in medium was measured and was normalized by cell number in each culture condition. Data are represented in percentage of proinflammatory control condition (AcMC condition).

Collagen I fibers = assay: Quantity of Collagen 1 fibers produced by preadipocytes in inflammatory condition (immunofluorescence); format: cell-based, human; conditions: AcMC + 100 nM, normalized by cells number (DAPI)
Description: as §1, §2, §3
One month after fixation of preadipocytes cultivated in pro-inflammatory environment, cells were incubated with 3% Bovine Serum Albumin (BSA) for 30 min in order to block the non-specific sites, then with primary antibody anti-collagen 1 (Novusbio, NB600-408) over-night. After washes with PBS, cells were incubated for 30 min with 3% BSA and then with the secondary antibodies (Goat anti-rabbit alexa-fluor 488, ThermoFisher, A11008) and DAPI (for nuclei staining) for 1 h. After several washes, the acquisition and the quantification were performed with a fluorescent video-microscope. Briefly, the quantification was based on the detection and quantification of cell nuclei stained with DAPI, and the detection of collagen 1 staining. Collagen 1 fibers were detected and measured for their length, thickness and intensity. A Collagen 1 fibers quantity was calculated (Quantity=length*thickness*fluorescence intensity) and normalized by cells number (DAPI staining).
Collagen I fibers (fibrillar collagen I) quantity was quantified and the data were normalized by cell number (DAPI staining, quantification of nuclei number). Data are represented in percentage of proinflammatory control conditions (AcMC condition).

IL-6 [3] = assay: IL-6 secretion in coculture of human aged fibroblasts and mature adipocytes (AM3D-FB2D, ELISA); format: cell-based; conditions: for secretion of IL-6 in percentage of the coculture control condition, Mean (%) / secretion of IL-6 in percentage of the coculture control condition, Values (%): 100 nM; for secretion of IL-6 in percentage of the coculture control condition, Values (%): individual replicates; for IL-6 secretion in percentage of the coculture control condition: anti-inflammatory reference item
Description: In order to evaluate its effect on fibroblast matrix and its anti-inflammatory properties, the effect of compound 6 has been tested on an adipocytes-aged fibroblasts coculture model, mimicking the interactions between dermis and hypodermis in the skin and allowed to explore in parallel the biological effects of the products on two cellular targets.
• Experimental model: co-culture of human mature adipocytes cultured in 3D and human dermal fibroblasts cultured in 2D (AM3D-FB2D co-culture). This experimental model of AM3D-FB2D co-culture mimicked the interactions between dermis and hypodermis in the skin and allowed to explore in parallel the biological effects of the products on two cellular targets. • Donor characteristics: This study was performed on mature adipocytes and fibroblasts from two different donors (one donor for mature adipocytes and another donor for dermal fibroblasts). • Fibroblasts donor=person, BMI=28 kg/m^2 • Adipocytes donor=person, BMI=21.4 kg/m^2 • Treatment procedure: compound 6 was added to the co-culture medium daily for up to 6 days
Dermal fibroblasts were seeded in DMEM 10% FBS at 10000 cells/well. The day after, the adipocytes capsules of 50 μl were added in suspension above the fibroblasts and the medium was changed and replaced by a specific culture medium for the co-culture AM3D-FB2D. The formation of adipocytes capsules followed an internal standardized protocol. Briefly, the fully mature adipocytes were isolated from the hypodermis after digestion by collagenase. The isolated adipocytes were then washed with a wash buffer and encapsulated in a peptidic hydrogel to form 3D adipocytes capsules of 50 μl in size. Cells were incubated at 37° C. and 5% CO2 overnight for stabilization. Treatments were initiated at DO with a medium change at DO, D2, D3 and D5. The entire culture media of 24 h incubation was collected at D3 and D6, before being centrifugated and stored at −80° C. Each culture condition was done in triplicate.
The biochemical analyses on culture media were performed via ELISA using specific kits according to the manufacturer's recommendations: IL-6 (Duoset DY206, R&D Systems), and Hyaluronic Acid (HA) (Duoset, DY3614-05, R&D Systems and Procollagen I (Duoset, DY6220-05, R&D Systems) The results of HA and Procollagen I were normalized by fibroblasts cell number regarding the fact that these molecules were secreted mainly by fibroblasts. All the biochemical results were represented in percentage of the control condition.
To evaluate the effect of the compound 6 on inflammation, the extracellular concentrations of IL-6, that is secreted by the fibroblasts but mainly by the adipocytes, were measured at D3 and D6.

[4] = AcMC + 100 nM, normalized by cells number (DAPI)
[5] = AcMC + 100 nM, normalized by cells number (DAPI), individual values

## COc1ccc(O)c(C(C)(C)C)c1 [BHA, Butylated hydroxyanisole, reference compound]
[1]
  % Irradiated control (lipid peroxidation): 31%
  % Protection (lipid peroxidation): 75%
  C11-fluor 1/GMFI Mean (AU): 2.7E−04 AU
[1]; individual replicates
  C11-fluor 1/GMFI (AU): 1.90E−04 AU and 2.74E−04 AU and 3.37E−04 AU
  C11-fluor GMFI (AU): 5266 AU and 3653 AU and 2965 AU

## C[C@@H]1C[C@H]2[C@@H]3CCC4=CC(=O)C=C[C@]4(C)[C@@]3(F)[C@@H](O)C[C@]2(C)[C@@]1(O)C(=O)CO [Dexamethasone, reference compound]
IL-6 [2]; [4]
  IL-6 secretion, Mean: 22.8 % of AcMC condition
IL-6 [2]; [5]
  IL-6 secretion, Values: 21.9 % of AcMC condition and 21.8 % of AcMC condition and 24.5 % of AcMC condition
IL-6 [2]; preadipocytes/adipocytes, AcMC, 100 nM
  IL-6 secreted, normalized by cell number, in % of AcMC condition: 22.8%
Human preadipocytes
  Total Lipid Accumulation (Adipored staining), Mean: 220.6 % of AcMC condition
Human preadipocytes; individual values
  Total Lipid Accumulation (Adipored staining), Values: 213.8 % of AcMC condition and 229.4 % of AcMC condition and 218.6 % of AcMC condition
MCP1; [4]
  MCP1 secretion, Mean (%): 95 % of AcMC condition
MCP1; [5]
  MCP1 secretion, Values (%): 82.4 % of AcMC condition and 106.8 % of AcMC condition and 97.2 % of AcMC condition
MCP1; AcMC, DXM at 100 nM
  Effect on the MCP1 secretion: no effect
Collagen I fibers
  Collagen I fibers quantity, Mean (%): 391 % of AcMC condition
Collagen I fibers; individual values
  Collagen I fibers quantity, Values (%): 397.3 % of AcMC condition and 390.0 % of AcMC condition and 384.5 % of AcMC condition
IL-6 [3]; D3
  secretion of IL-6 in percentage of the coculture control condition, Mean (%): 34%
  secretion of IL-6 in percentage of the coculture control condition, Values (%): 22% and 48% and 31%
IL-6 [3]; D6
  secretion of IL-6 in percentage of the coculture control condition, Mean (%): 41%
  secretion of IL-6 in percentage of the coculture control condition, Values (%): 39% and 24% and 61%
IL-6 [3]; 3 days of treatment
  IL-6 secretion in percentage of the coculture control condition: 34%
IL-6 [3]; 6 days of treatment
  IL-6 secretion in percentage of the coculture control condition: 41%
